Measurements published in PubChem BioAssay AID248 (DTP/NCI, 2004).
Values joined by “and” are separate entries in the source; they are usually repeats but may differ in a detail not shown here. Equal values may be shown once. Toxic doses and inconclusive results are not listed. No stated cut-off is given here; in the data, active means T/C of 150% or more; inactive means T/C below 125%.

Test system: L1210 leukemia ip in BDF1 mice, survival T/C
Experiment: NCI In Vivo Anticancer Drug Screen. Data for tumor model L1210 Leukemia (intraperitoneal) in B6D2F1 (BDF1) mice
Conditions: endpoint: mean survival time, higher = longer survival
Method in brief: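 Mice bearing the transplanted tumor received compound or vehicle. Survival of the treated group was divided by that of the vehicle-treated control group to give the ratio.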

[1] = dose: 100.0 mg/kg/injection, schedule: Q01DX001 (ip), vehicle: saline
[2] = dose: 200.0 mg/kg/injection, schedule: Q01DX001 (ip), vehicle: saline
[3] = dose: 400.0 mg/kg/injection, schedule: Q01DX001 (ip), vehicle: saline
[4] = dose: 25.0 mg/kg/injection, schedule: Q01DX009 (ip), vehicle: saline
[5] = dose: 100.0 mg/kg/injection, schedule: Q01DX009 (ip), vehicle: saline
[6] = dose: 100.0 mg/kg/injection, schedule: Q04DX003 (ip), vehicle: saline
[7] = dose: 200.0 mg/kg/injection, schedule: Q04DX003 (ip), vehicle: saline
[8] = dose: 400.0 mg/kg/injection, schedule: Q04DX003 (ip), vehicle: saline
[9] = dose: 50.0 mg/kg/injection, schedule: Q01DX001 (ip), vehicle: saline
[10] = dose: 100.0 mg/kg/injection, schedule: Q04DX003 (ip), vehicle: Klucel (hydroxypropylcellulose) (HPC)
[11] = dose: 25.0 mg/kg/injection, schedule: Q04DX003 (ip), vehicle: saline with Tween-80
[12] = dose: 100.0 mg/kg/injection, schedule: Q01DX001 (ip), vehicle: saline with Tween-80
[13] = dose: 100.0 mg/kg/injection, schedule: Q01DX009 (ip), vehicle: saline with Tween-80
[14] = dose: 100.0 mg/kg/injection, schedule: Q04DX002 (ip), vehicle: saline with Tween-80
[15] = dose: 100.0 mg/kg/injection, schedule: Q04DX003 (ip), vehicle: saline with Tween-80
[16] = dose: 200.0 mg/kg/injection, schedule: Q01DX009 (ip), vehicle: saline with Tween-80
[17] = dose: 200.0 mg/kg/injection, schedule: Q04DX002 (ip), vehicle: saline with Tween-80
[18] = dose: 200.0 mg/kg/injection, schedule: Q04DX003 (ip), vehicle: saline with Tween-80
[19] = dose: 100.0 mg/kg/injection, schedule: Q01DX009 (ip), vehicle: Klucel (hydroxypropylcellulose) (HPC)
[20] = dose: 200.0 mg/kg/injection, schedule: Q01DX009 (ip), vehicle: Klucel (hydroxypropylcellulose) (HPC)
[21] = dose: 400.0 mg/kg/injection, schedule: Q01DX009 (ip), vehicle: Klucel (hydroxypropylcellulose) (HPC)
[22] = dose: 200.0 mg/kg/injection, schedule: Q04DX003 (ip), vehicle: Klucel (hydroxypropylcellulose) (HPC)
[23] = dose: 400.0 mg/kg/injection, schedule: Q04DX003 (ip), vehicle: Klucel (hydroxypropylcellulose) (HPC)

Measured: T/C

CCCCN(CCCC)CCCN1C(=O)c2ccccc2S1(=O)=O
inactive: dose: 44.0 mg/kg/injection, schedule: Q01DX Z (ip), vehicle: methylcellulose (MC) 96 % of control | dose: 66.0 mg/kg/injection, schedule: Q01DX Z (ip), vehicle: methylcellulose (MC) 100 % of control | dose: 100.0 mg/kg/injection, schedule: Q01DX Z (ip), vehicle: methylcellulose (MC) 96 % of control

C=CCNC(=O)SCCC(=O)O
inactive: [1] 93 % of control | [2] 100 % of control | [3] 102 % of control

Cc1cncn1Cc1ccc([N+](=O)[O-])cc1
inactive: [4] 101 % of control and 102 % of control | dose: 25.0 mg/kg/injection, schedule: Q04DX002 (ip), vehicle: saline 106 % of control and 115 % of control | dose: 50.0 mg/kg/injection, schedule: Q01DX009 (ip), vehicle: saline 98 % of control and 108 % of control | dose: 50.0 mg/kg/injection, schedule: Q04DX002 (ip), vehicle: saline 97 % of control and 100 % of control | [5] 96 % of control

CCN(CC)CC(OC(=O)C(c1ccccc1)c1ccccc1)C(COC)OC (centres undefined)
inactive: dose: 55.0 mg/kg/injection, schedule: Q01DX Z (ip), vehicle: saline 109 % of control | dose: 83.0 mg/kg/injection, schedule: Q01DX Z (ip), vehicle: saline 96 % of control | dose: 125.0 mg/kg/injection, schedule: Q01DX Z (ip), vehicle: saline 91 % of control

COc1cccc([Si](C)(C)[Si](C)C)c1
inactive: [6] 98 % of control | [7] 110 % of control | [8] 96 % of control

CCC1CC(C#N)C(=O)NC1=O (centres undefined)
inactive: dose: 6.25 mg/kg/injection, schedule: Q01DX009 (ip), vehicle: saline 93 % of control | dose: 12.5 mg/kg/injection, schedule: Q01DX001 (ip), vehicle: saline 108 % of control | dose: 12.5 mg/kg/injection, schedule: Q01DX009 (ip), vehicle: saline 91 % of control | dose: 12.5 mg/kg/injection, schedule: Q04DX003 (ip), vehicle: saline 100 % of control | dose: 25.0 mg/kg/injection, schedule: Q01DX001 (ip), vehicle: saline 100 % of control | [4] 93 % of control | dose: 25.0 mg/kg/injection, schedule: Q04DX003 (ip), vehicle: saline 92 % of control | [9] 110 % of control

C=CCOC1C=CC=CC=C1
inactive: dose: 25.0 mg/kg/injection, schedule: Q01DX009 (ip), vehicle: Klucel (hydroxypropylcellulose) (HPC) 100 % of control | dose: 50.0 mg/kg/injection, schedule: Q01DX009 (ip), vehicle: Klucel (hydroxypropylcellulose) (HPC) 100 % of control | [10] 94 % of control

CC1(C)N=C(N)N=C(N)N1c1cccc(CCCCOc2ccccc2)c1
inactive: dose: 6.25 mg/kg/injection, schedule: Q04DX003 (ip), vehicle: saline with Tween-80 101 % of control | dose: 12.5 mg/kg/injection, schedule: Q04DX003 (ip), vehicle: saline with Tween-80 106 % of control | [11] 95 % of control

CCCCCCCCCCCCCCCCCCNC(=O)Nc1cc(C(C)C)ccc1C
inactive: dose: 100.0 mg/kg/injection, schedule: Q01DX009 (ip), vehicle: other 86 % of control | dose: 200.0 mg/kg/injection, schedule: Q01DX009 (ip), vehicle: other 88 % of control | dose: 400.0 mg/kg/injection, schedule: Q01DX009 (ip), vehicle: other 99 % of control and 100 % of control

O=C1c2ccccc2-c2ccc(N3C(=O)c4ccccc4C3=O)cc21
inactive: dose: 16.5 mg/kg/injection, schedule: Q01DX001 (ip), vehicle: saline with Tween-80 88 % of control | dose: 37.5 mg/kg/injection, schedule: Q01DX001 (ip), vehicle: saline with Tween-80 92 % of control | dose: 50.0 mg/kg/injection, schedule: Q01DX001 (ip), vehicle: saline with Tween-80 95 % of control | [12] 91 % of control

CC(NC(=O)CNC(=O)c1cnc2ccccc2n1)C(=O)O (centres undefined)
inactive: [1] 100 % of control | [2] 101 % of control | [3] 94 % of control

CC(C)NC(=O)NS(=O)(=O)c1ccc(N)cc1
inactive: [6] 94 % of control | [7] 103 % of control | [8] 110 % of control

Nc1nc2c(ncn2C2OC(CO)C(O)C2O)c(=O)n1N (centres undefined)
inactive: [1] 102 % of control | [2] 101 % of control | [3] 95 % of control

O=C(O)Cc1cccc(S(=O)(=O)F)c1
inactive: [11] 96 % of control | dose: 50.0 mg/kg/injection, schedule: Q01DX009 (ip), vehicle: saline with Tween-80 109 % of control | dose: 50.0 mg/kg/injection, schedule: Q04DX003 (ip), vehicle: saline with Tween-80 99 % of control | [12] 96 % of control | [13] 111 % of control | [14] 91 % of control | [15] 99 % of control and 100 % of control | dose: 200.0 mg/kg/injection, schedule: Q01DX001 (ip), vehicle: saline with Tween-80 92 % of control | [16] 104 % of control | [17] 86 % of control | [18] 105 % of control | dose: 400.0 mg/kg/injection, schedule: Q01DX001 (ip), vehicle: saline with Tween-80 100 % of control

O=C(Nc1ccc(F)c([N+](=O)[O-])c1)N1CCN(c2ccccc2)CC1
inactive: [19] 101 % of control | [20] 98 % of control | [21] 107 % of control

COc1cc([N+](=O)[O-])c(/C=C2/c3cc(OC)c(OC)cc3CCN2C)cc1Br
inactive: [19] 100 % of control | [10] 90 % of control | [20] 96 % of control | [22] 96 % of control | [21] 92 % of control | [23] 95 % of control

CCCCN(CCCC)CC(O)c1cc(Cc2ccccc2)nc2c(Cl)cc(Cl)cc12 (centres undefined)
inactive: [15] 89 % of control | [18] 100 % of control | dose: 400.0 mg/kg/injection, schedule: Q04DX003 (ip), vehicle: saline with Tween-80 100 % of control

Cc1c(-c2ccccc2)sc(/N=C/c2cc(Br)cc(Br)c2O)c1C#N
inactive: [13] 99 % of control and 111 % of control | [14] 112 % of control and 90 % of control | [16] 97 % of control and 86 % of control | [17] 93 % of control and 102 % of control | dose: 400.0 mg/kg/injection, schedule: Q01DX009 (ip), vehicle: saline with Tween-80 94 % of control | dose: 400.0 mg/kg/injection, schedule: Q04DX002 (ip), vehicle: saline with Tween-80 106 % of control and 107 % of control

CCOC(C)=N
inactive: [9] 100 % of control | dose: 50.0 mg/kg/injection, schedule: Q01DX008 (ip), vehicle: saline 102 % of control | [1] 89 % of control and 97 % of control | dose: 100.0 mg/kg/injection, schedule: Q01DX008 (ip), vehicle: saline 112 % of control | [6] 107 % of control | [2] 105 % of control and 111 % of control | dose: 200.0 mg/kg/injection, schedule: Q01DX008 (ip), vehicle: saline 115 % of control | [7] 107 % of control | [3] 115 % of control | [8] 110 % of control

N#Cc1ccc(Cl)c2c1C(=O)c1ccccc1C2=O
inactive: [1] 98 % of control | [5] 100 % of control | [2] 98 % of control | dose: 200.0 mg/kg/injection, schedule: Q01DX009 (ip), vehicle: saline 94 % of control | [3] 95 % of control | dose: 400.0 mg/kg/injection, schedule: Q01DX009 (ip), vehicle: saline 92 % of control

O=C(C(=O)c1cc(Br)ccc1O)c1cc(Br)ccc1O
inactive: [19] 96 % of control | [10] 93 % of control | [20] 100 % of control | [22] 97 % of control | [21] 94 % of control | [23] 95 % of control

NCCSC(O)(C(F)(F)F)C(F)(F)F
inactive: dose: 37.5 mg/kg/injection, schedule: Q04DX003 (ip), vehicle: saline 103 % of control | dose: 75.0 mg/kg/injection, schedule: Q01DX001 (ip), vehicle: saline 113 % of control and 101 % of control | dose: 75.0 mg/kg/injection, schedule: Q04DX003 (ip), vehicle: saline 102 % of control and 103 % of control | dose: 150.0 mg/kg/injection, schedule: Q01DX001 (ip), vehicle: saline 106 % of control and 109 % of control | dose: 150.0 mg/kg/injection, schedule: Q04DX003 (ip), vehicle: saline 104 % of control and 100 % of control
